Read-outs that look alike come from different tables or passages of the source.
Experiments:
[1] = Cytotoxicity against cultured L6 cells (resazurin); conditions: rat, L6 rat skeletal myoblast cells, L6 Cells CC50, mean of triplicate experiments ± SEM
[2] = system: rat skeletal myoblast L6 cells; test: Cytotoxicity against cultured L6 cells (resazurin); conditions: read-out: L6 Cells CC50; mean of triplicate experiments ± SEM
[3] = system: HCV GT 3a (strain S52) subgenomic replicon; test: microbe, parasite or virus in culture; format: cell-based, hepatitis C virus; conditions: Hepatitis C virus, GT3A, 72 h, luciferase, mean ± SD, read-out: Huh7.5-3a(S52) (HCV Replicon 3a) EC50
[4] = system: YFV (strain 17D) subgenomic replicon; test: microbe, parasite or virus in culture; format: cell-based, yellow fever virus; conditions: Yellow fever virus, 72 h, read-out: Huh7-YF (YFV Replicon 17D) EC50
[5] = system: HCV GT1b (Con1) replicon RNA; conditions: Hepatitis C virus, Huh-5-2, read-out: HCV RNA EC50
[6] = system: bloodstream form T. b. brucei (strain 221); test: microbe, parasite or virus in culture; conditions: Trypanosoma brucei, mean of triplicate experiments ± SEM; for EC50: read-out: T. brucei EC50, cultured bloodstream form; for EC90: read-out: T. brucei EC90, cultured bloodstream form
[7] = system: HCV GT 4a (strain ED43) subgenomic replicon; test: microbe, parasite or virus in culture; format: cell-based, hepatitis C virus; conditions: for EC50: 72 h, luciferase, mean ± SD, read-out: Huh7.5-4a(ED43) (HCV Replicon 4a) EC50
[8] = system: bloodstream form T. b. brucei (strain 221); conditions: for SI (CC50 for L6 cells / EC50 for T. brucei): selectivity index; for increase in activity against T. brucei relative to parent compound: 38, 40, 41 versus parent 36, 42 versus parent 37; for EC50: read-out: T. brucei EC50, cultured bloodstream form, mean of triplicate experiments ± SEM
[9] = system: DENV serotype 2 (strain 16681) subgenomic replicon; test: microbe, parasite or virus in culture; format: cell-based, dengue virus; conditions: Dengue virus, DENV2; 72 h; luciferase; mean ± SD; read-out: Huh7-D2 (DENV-2 Replicon) EC50
HCV GT 1b (Con1) = test: Combinatory activity of 34 with daclatasvir (DCV) in Huh5-2 replicon cells, F-Luc activity; format: cell-based, hepatitis C virus
Protocol: The Huh5-2 replicon cell line was treated with compound 34 in the presence or absence of daclatasvir (DCV) to test its effectiveness in combination with an authorized NS5A inhibitor (DCV) (Figure 6).
Figure 6 Combinatory activity of 34 with DCV against HCV GT 1b (Con1). Huh5-2 cells were treated or not with the analog in the presence or absence of 20 pM DCV. F-Luc activity was measured and calculated as relative light units (RLU) per μg of total protein. […] CDI: coefficient of drug interaction. […] Error bars represent standard deviation (SD). TEXT PRINTED IN THE PICTURE: DCV + 34: CDI: 1.09 (1μM); CDI: 0.91 (2μM)

[10] = Cytotoxicity in Huh5-2 replicon cells (intracellular ATP levels); conditions: human
[11] = system: T. cruzi (CL Brener strain) epimastigotes; test: microbe, parasite or virus in culture; conditions: Trypanosoma cruzi; for EC50: read-out: T. cruzi EC50; for EC90: read-out: T. cruzi EC90
[12] = system: T. cruzi (CL Brener strain) epimastigotes; conditions: selectivity index
[13] = system: bloodstream form T. b. brucei (strain 221); conditions: cited from earlier work
HCV = system: HCV; set-up: method as in doi:10.1039/C5MD00439J; conditions: read-out: Antiviral activity (Hepatitis C) EC50; cited from earlier work
[14] = system: T. cruzi (CL Brener strain) epimastigotes; set-up: method as in PMID 31303998; conditions: lead compound; cited from earlier work
[15] = system: DENV serotype 2 (strain 16681) subgenomic replicon; set-up: method as in PMID 31303998; conditions: lead compound; read-out: Huh7-D2 (DENV-2 Replicon) EC50; cited from earlier work
[16] = system: HCV GT 4a (strain ED43) subgenomic replicon; set-up: method as in PMID 31303998; conditions: lead compound; read-out: Huh7.5-4a(ED43) (HCV Replicon 4a) EC50; cited from earlier work
Huh5-2 cells = system: Huh5-2 cells; set-up: method as in PMID 31303998; conditions: lead compound; read-out: Huh5-2 (HCV Replicon 1b) CC50; cited from earlier work
[17] = system: HCV GT 3a (strain S52) subgenomic replicon; set-up: method as in PMID 31303998; conditions: lead compound; read-out: Huh7.5-3a(S52) (HCV Replicon 3a) EC50; cited from earlier work
[18] = system: rat skeletal myoblast L6 cells; set-up: method as in PMID 31303998; conditions: lead compound; cited from earlier work
[19] = earlier lead compounds, read-out: T. brucei EC50

SMILES | CC50 at 6 days [1] [µM] | EC50 [3] [µM] | EC50 [4] [µM] | EC50 [6] [µM] | EC90 [6] [µM] | SI (CC50 for L6 cells / EC50 for T. brucei) [8] | EC50 [9] [µM] | CC50 at 72 h [10] [µM] | EC50 [11] [µM] | EC50 ([7]; Hepatitis C virus, GT4A) [µM] | SI (CC50 for L6 cells / EC50 for T. cruzi) [12] | EC90 [11] [µM] | further results
CC1CCC2(NC(=O)N(CC(=O)NO)C2=O)c2ccccc21 [Compound 34, Ν-(hydroxy)-2-((4R,4′S)/(4S,4′R)-4′-methyl-2,5-dioxo-3′,4′-dihydro-2′H-spiro[imidazolidine-4,1′-naphthalene]-1-yl)acetamide] | > 200 | 0.63 ± 0.08 | > 10 | 0.67 ± 0.09 | 0.92 ± 0.23 | 335 | > 10 | > 200 | > 30 |  |  |  | CC50 [2]: 224 ± 20 µM; EC50 [5]: 0.726 µM; fold more active against GT 4a than lead molecule V [7]: 2.5 fold; EC50 [7]: 0.14 ± 0.01 µM; CDI (HCV GT 1b (Con1); 1 μM 34 with 20 pM DCV): 1.09; CDI (HCV GT 1b (Con1); 2 μM 34 with 20 pM DCV): 0.91; coefficient of drug interaction (CDI) (HCV GT 1b (Con1); 34 in combination with daclatasvir (DCV)): ≈ 1
O=C(CN1C(=O)NC2(CCC(c3ccccc3)CC2)C1=O)NO (stereo not shown) [Compound 36, N-Hydroxy-2-(2,4-dioxo-8-phenyl-1,3-diazaspiro [4.5]decan-3-yl) acetamide] | 60.8 ± 8.2 | 0.75 ± 0.13 | > 10 | 0.88 ± 0.1 | 1.18 ± 0.04 | 70 | 4.64 ± 0.11 | 75.4 ± 8.46 | > 30 | 0.39 ± 0.01 |  |  | 
O=C(CN1C(=O)NC2(CCCCC2c2ccccc2)C1=O)NO (stereo not shown) [Compound 37, N-Hydroxy-2-(2,4-dioxo-6-phenyl-1,3-diazaspiro [4.5]decan-3-yl) acetamide] | > 200 | > 10 | > 10 | 4.41 ± 0.22 | 5.92 ± 0.09 | 55 | > 10 | > 10 | > 30 | > 10 |  |  | CC50 [2]: 246 ± 3 µM; T. brucei EC50 fold higher than that of 36 ([8]; 2-phenyl versus 4-phenyl cyclohexane ring): 5 fold
CN1C(=O)N(CC(=O)NO)C(=O)C12CCC(c1ccccc1)CC2 (stereo not shown) [Compound 38, N-Hydroxy-2-(1-methyl-2,4-dioxo-8-phenyl-1,3-diazaspiro [4.5]decan-3-yl)acetamide] | 21.7 ± 3.9 | 0.63 ± 0.01 | > 10 | 0.1 ± 0.01 | 0.14 ± 0.01 | 220 | 10.2 ± 0.18 | 43.1 ± 2.11 | 6.25 ± 0.24 | 0.22 | 4 | 13.3 ± 0.3 | increase in activity against T. brucei relative to parent compound [8]: 9 fold
CN1C(=O)N(CC(=O)NO)C(=O)C12CCCCC2c1ccccc1 (stereo not shown) [Compound 39, N-Hydroxy-2-(1-methyl-2,4-dioxo-6-phenyl-1,3-diazaspiro [4.5]decan-3-yl)acetamide] | 217 ± 6 | > 10 | > 10 | 1.46 ± 0.06 | 1.75 ± 0.02 | 150 | 4.62 ± 0.39 | > 10 | > 30 | > 10 |  |  | 
CCN1C(=O)N(CC(=O)NO)C(=O)C12CCC(c1ccccc1)CC2 (stereo not shown) [Compound 40, N-Hydroxy-2-(1-ethyl-2,4-dioxo-8-phenyl-1,3-diazaspiro [4.5]decan-3-yl)acetamide] | 54.3 ± 5.9 | 0.52 ± 0.08 | 6.67 ± 0.05 | 0.029 ± 0.001 | 0.055 ± 0.003 | 1870 | 0.68 ± 0.03 | 10.6 ± 0.12 | 1.12 ± 0.03 | 0.31 ± 0.13 | 48 | 1.86 ± 0.04 | increase in activity against T. brucei relative to parent compound [8]: 30 fold
O=C(CN1C(=O)N(Cc2ccccc2)C2(CCC(c3ccccc3)CC2)C1=O)NO (stereo not shown) [Compound 41, N-Hydroxy-2-(1-benzyl-2,4-dioxo-8-phenyl-1,3-diazaspiro [4.5]decan-3-yl)acetamide] | 3.98 ± 0.32 | > 10 | > 10 | 0.009 ± 0.001 | 0.011 ± 0.001 | 440 | > 10 | > 10 | 0.34 ± 0.02 | > 10 | 12 | 0.74 ± 0.05 | increase in activity against T. brucei relative to parent compound [8]: 100 fold
O=C(CN1C(=O)N(Cc2ccccc2)C2(CCCCC2c2ccccc2)C1=O)NO (stereo not shown) [Compound 42, N-Hydroxy-2-(1-benzyl-2,4-dioxo-6-phenyl-1,3-diazaspiro [4.5]decan-3-yl)acetamide] | 11.9 ± 0.7 | > 10 | 4.68 ± 0.23 | 0.19 ± 0.01 | 0.237 ± 0.003 | 62 | 1.37 ± 0.08 | 9.37 ± 0.182 | 1.95 ± 0.05 | 0.45 ± 0.02 | 6 | 3.12 ± 0.12 | increase in activity against T. brucei relative to parent compound [8]: 23 fold; EC50 [8]: 0.191 ± 0.006 µM
CC(C(=O)NO)N1C(=O)NC2(CCC(c3ccccc3)CC2)C1=O (stereo not shown) [Compound 49, N-(Hydroxy)-2-(2,4-dioxo-8-phenyl-1,3-diazaspiro [4.5]decan-3-yl)propanamide] | > 200 | > 10 | 7.98 ± 0.18 | 0.88 | 1.42 ± 0.19 | 270 | > 10 | > 10 | > 30 | > 10 |  |  | CC50 [2]: 233 ± 33 µM; EC50 [8]: 0.876 ± 0.051 µM
CC(C(=O)NO)N1C(=O)N(C)C2(CCC(c3ccccc3)CC2)C1=O (stereo not shown) [Compound 53, N-(hydroxy)-2-(1-methyl-2,4-dioxo-8-phenyl-1,3-diazaspiro [4.5]decan-3-yl)propanamide] | 90.5 ± 7.3 | > 10 | > 10 | 0.154 ± 0.009 | 0.281 ± 0.006 | 590 | 2.45 ± 0.22 | 100 ± 3.57 | 8.5 ± 0.23 | 0.28 ± 0.02 | 11 | 11.9 ± 0.5 | 
O=C(CN1C(=O)NC2(CCc3ccccc32)C1=O)NO (stereo not shown) [III] |  |  |  |  |  |  |  |  |  |  |  |  | EC50 [13, 19]: 0.44 ± 0.08 µM
O=C(CN1C(=O)CNC2(CCCCCC2)C1=O)NO [II] |  |  |  |  |  |  |  |  |  |  |  |  | EC50 ([13]; read-out: Trypanocidal activity (T. brucei) EC50): 1.87 ± 0.08 µM
O=C(CN1C(=O)NC2(CCCCc3ccccc32)C1=O)NO (stereo not shown) [IV] |  |  |  |  |  |  |  |  |  |  |  |  | EC50 [13, 19]: 0.4 ± 0.04 µM
O=C1Cn2c(cc3ccccc32)C(=O)N1O [I] |  |  |  |  |  |  |  |  |  |  |  |  | EC50 (HCV): 126 ± 14.2 µM
O=C(CN1C(=O)NC2(CCCc3ccccc32)C1=O)NO (stereo not shown) [V] |  |  |  |  |  |  |  |  |  |  |  |  | EC50 [13, 19]: 0.71 ± 0.12 µM; EC90 ([13]; lead compound): 1.27 ± 0.02 µM; SI (CC50 for L6 cells / EC50 for T. brucei) ([13]; lead compound): 590; EC50 [14]: > 30 µM; EC90 [14]: > 30 µM; EC50 [15]: 61.5 ± 3.86 µM; EC50 [16]: 0.38 ± 0.04 µM; CC50 (Huh5-2 cells): > 200 µM; EC50 [17]: 2.37 ± 0.17 µM; CC50 [18]: 419 ± 55 µM

From publication PMC10385743
